According to PubChem BioAssay (NCI):
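Briefly, cells in 96-well plates were exposed to five compound concentrations for 48 h, and endpoints were estimated by linear interpolation. TGI marks complete inhibition of growth.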 Calls of active or inactive are those of the source. Rule as the data show it: active = GI50 below about 0.43 µM; inactive = the rest.

Assays:
Assay in all cases: inhibition of tumour cell growth, NCI panel, 48 h
[1] = system: DMS 273 small cell lung
[2] = system: IGROV1 ovarian
[3] = system: NCI-H23 lung
[4] = system: SF-268 CNS
[5] = system: LOX IMVI melanoma
[6] = system: SN12C renal
[7] = system: HOP-92 NSCLC
[8] = system: M19-MEL melanoma
[9] = system: UACC-62 melanoma
[10] = system: RPMI-8226 leukemia
[11] = system: OVCAR-4 ovarian
[12] = system: NCI-H460 lung
[13] = system: LXFL 529 NSCLC
[14] = system: DMS 114 small cell lung
[15] = system: SNB-78 CNS
[16] = system: SK-OV-3 ovarian
[17] = system: HT29 colon
[18] = system: DLD-1 colon
[19] = system: OVCAR-5 ovarian
[20] = system: 786-0 renal
[21] = system: K-562 leukemia
[22] = system: U251 CNS
[23] = system: CCRF-CEM leukemia
[24] = system: KM12 colon
[25] = system: COLO 205 colon
[26] = system: SK-MEL-2 melanoma
[27] = system: NCI-H522 lung
[28] = system: XF 498 CNS
[29] = system: SF-295 CNS
[30] = system: ACHN renal
[31] = system: HL-60(TB) leukemia
[32] = system: MALME-3M melanoma
[33] = system: KM20L2 colon
[34] = system: HCC-2998 colon
[35] = system: UACC-257 melanoma
[36] = system: RXF-631 renal
[37] = system: CAKI-1 renal
[38] = system: MOLT-4 leukemia
[39] = system: M14 melanoma
[40] = system: OVCAR-3 ovarian
[41] = system: A498 renal
[42] = system: HOP-62 NSCLC
[43] = system: HCT-15 colon
[44] = system: SF-539 CNS
[45] = system: SNB-75 CNS
[46] = system: SR leukemia
[47] = system: NCI-H226 lung
[48] = system: SNB-19 CNS
[49] = system: OVCAR-8 ovarian
[50] = system: RXF 393 renal
[51] = system: SW-620 colon
[52] = system: A549 NSCLC
[53] = system: NCI/ADR-RES ovarian
[54] = system: EKVX NSCLC
[55] = system: UO-31 renal
[56] = system: HCT-116 colon
[57] = system: TK-10 renal
[58] = system: SK-MEL-28 melanoma
[59] = system: SK-MEL-5 melanoma
[60] = system: HOP-18 NSCLC

With CCCc1onc(CCC(=O)N(Cc2ccccc2)Cc2ccccc2)c1CC the TGI [1] was over 100 µM, the TGI [2] was over 100 µM and the TGI [3] was over 100 µM. It also gave a TGI [4] of over 100 µM, a TGI [5] of over 100 µM and a TGI [6] of over 100 µM. It also gave a TGI [7] of over 100 µM, a TGI [8] of over 100 µM and a TGI [9] of over 100 µM. It also gave a TGI [10] of over 100 µM, a TGI [11] of over 100 µM and a TGI [12] of over 100 µM. The TGI [13] was over 100 µM, the TGI [14] was over 100 µM and the TGI [15] was over 100 µM. For the same compound, the TGI [16] was over 100 µM, the TGI [17] was over 100 µM and the TGI [18] was over 100 µM. The TGI [19] was over 100 µM, the TGI [20] was over 100 µM and the TGI [21] was over 100 µM. For the same compound, the TGI [22] was over 100 µM, the TGI [23] was over 100 µM and the TGI [24] was over 100 µM. For the same compound, the TGI [25] was over 100 µM, the TGI [26] was over 100 µM and the TGI [27] was over 100 µM. For the same compound, the TGI [28] was over 100 µM, the TGI [29] was over 100 µM and the TGI [30] was over 100 µM. The TGI [31] was over 100 µM, the TGI [32] was over 100 µM and the TGI [33] was over 100 µM. For the same compound, the TGI [34] was over 100 µM, the TGI [35] was over 100 µM and the TGI [36] was over 100 µM. The TGI [37] was over 100 µM, the TGI [38] was over 100 µM and the TGI [39] was over 100 µM. It also gave a TGI [40] of over 100 µM, a TGI [41] of over 100 µM and a TGI [42] of over 100 µM. For the same compound, the TGI [43] was over 100 µM.

With CC(C)=C1C(=O)C[C@@]2(C)C[C@H]3OC3(C)CC/C=C(/C)CCC12 (some centres not stated) the outcome [1] was “inactive”, the outcome [2] was “inactive” and the outcome [44] was “inactive”. For the same compound, the outcome [3] was “inactive”, the outcome [45] was “inactive” and the outcome [4] was “inactive”. The outcome [46] was “inactive”, the outcome [47] was “inactive” and the outcome [5] was “inactive”. For the same compound, the outcome [48] was “inactive”, the outcome [6] was “inactive” and the outcome [7] was “inactive”. For the same compound, the outcome [9] was “inactive”, the outcome [10] was “inactive” and the outcome [11] was “inactive”. The outcome [12] was “inactive”, the outcome [13] was “inactive” and the outcome [14] was “inactive”. The outcome [49] was “inactive”, the outcome [15] was “inactive” and the outcome [16] was “inactive”. For the same compound, the outcome [50] was “inactive”, the outcome [51] was “inactive” and the outcome [17] was “inactive”. For the same compound, the outcome [18] was “inactive”, the outcome [19] was “inactive” and the outcome [20] was “inactive”. For the same compound, the outcome [52] was “inactive”, the outcome [21] was “inactive” and the outcome [22] was “inactive”. The outcome [23] was “inactive”, the outcome [24] was “inactive” and the outcome [25] was “inactive”. For the same compound, the TGI [53] was 95 µM, the outcome [26] was “inactive” and the outcome [27] was “inactive”. The outcome [28] was “inactive”, the outcome [29] was “inactive” and the outcome [30] was “inactive”. For the same compound, the TGI [31] was 49.2 µM, the outcome [31] was “inactive” and the outcome [32] was “inactive”. The outcome [54] was “inactive”, the outcome [33] was “inactive” and the outcome [34] was “inactive”. The outcome [55] was “inactive”, the outcome [35] was “inactive” and the outcome [36] was “inactive”. The outcome [37] was “inactive”, the outcome [38] was “inactive” and the outcome [39] was “inactive”. The outcome [40] was “inactive”, the outcome [42] was “inactive” and the outcome [43] was “inactive”.

Work on COc1ccc2cc1Oc1ccc(cc1)CC1c3cc4c(cc3CCN1C)Oc1c(OC)cc3c(c1O4)C(C2)N(C)CC3 (configuration not stated) yielded a TGI [1] of 3.02 µM, a TGI [44] of 3.9 µM and a TGI [56] of 3.21 µM. It also gave a TGI [3] of 18.2 µM, a TGI [4] of 13.1 µM and a TGI [46] of 4.68 µM. The TGI [47] was 10.7 µM, the TGI [5] was 2.81 µM and the TGI [48] was 13.5 µM. For the same compound, the TGI [6] was 3.62 µM, the TGI [8] was 14.3 µM and the TGI [9] was 10.5 µM. It also gave a TGI [11] of 3.03 µM, a TGI [12] of 3.6 µM and a TGI [13] of 11 µM. For the same compound, the TGI [57] was 31.3 µM, the TGI [58] was 2.91 µM and the TGI [49] was 5.45 µM. For the same compound, the TGI [15] was 48 µM, the TGI [50] was 7.93 µM and the TGI [51] was 3.79 µM. The TGI [17] was 4.77 µM, the TGI [18] was 9.62 µM and the TGI [19] was 26.5 µM. It also gave a TGI [20] of 23 µM, a TGI [52] of 21.4 µM and a TGI [21] of 6.02 µM. For the same compound, the TGI [22] was 4.47 µM, the TGI [23] was 6.69 µM and the TGI [24] was 4.57 µM. The TGI [25] was 2.83 µM, the TGI [26] was 6.53 µM and the TGI [27] was 4.67 µM. The TGI [59] was 21.1 µM, the TGI [28] was 3.41 µM and the TGI [29] was 3.81 µM. For the same compound, the TGI [30] was 17.9 µM, the TGI [31] was 4.25 µM and the TGI [54] was 24.2 µM. It also gave a TGI [33] of 9.25 µM, a TGI [34] of 9.86 µM and a TGI [36] of 31.1 µM. It also gave a TGI [38] of 4.73 µM, a TGI [39] of 3 µM and a TGI [40] of 19.5 µM. For the same compound, the TGI [42] was 28 µM and the TGI [43] was 5.82 µM.

In the case of O=C1/C(=C\c2ccccc2)C2/C(=C\c3ccccc3)C(=O)/C(=C\c3ccccc3)C2/C1=C\c1ccccc1 (configuration not stated), the TGI [1] is reported as 3.17 µM, the TGI [2] is reported as 4.8 µM and the TGI [44] is reported as 6.81 µM. It also gave a TGI [3] of 3.78 µM, a TGI [45] of 71.2 µM and a TGI [4] of 18.5 µM. It also gave a TGI [5] of 1.75 µM, a TGI [6] of 4.89 µM and a TGI [7] of 4.4 µM. The TGI [8] was 3.47 µM, the TGI [9] was 4.24 µM and the TGI [11] was 3.83 µM. The TGI [12] was 4.2 µM, the TGI [13] was 24.9 µM and the TGI [14] was 5.67 µM. The TGI [57] was 19.5 µM, the TGI [58] was 8.75 µM and the TGI [49] was 21.2 µM. It also gave a TGI [16] of 46.9 µM, a TGI [50] of 3.15 µM and a TGI [51] of 7.26 µM. The TGI [60] was over 100 µM, the TGI [17] was 3.7 µM and the TGI [18] was 2.85 µM. It also gave a TGI [19] of 2.82 µM, a TGI [20] of 2.78 µM and a TGI [52] of 7 µM. For the same compound, the TGI [21] was over 100 µM, the TGI [22] was 2.43 µM and the TGI [23] was 4.35 µM. It also gave a TGI [24] of 3.54 µM, a TGI [25] of 2.94 µM and a TGI [26] of 3.62 µM. The TGI [27] was 2.09 µM, the TGI [59] was 4.7 µM and the TGI [29] was 5.71 µM. It also gave a TGI [30] of 5.94 µM, a TGI [31] of 4.5 µM and a TGI [32] of 4.36 µM. It also gave a TGI [54] of 52.7 µM, a TGI [33] of 3.55 µM and a TGI [34] of 2.59 µM. The TGI [55] was 3.32 µM, the TGI [35] was 4.2 µM and the TGI [36] was 9.68 µM. It also gave a TGI [37] of 8.17 µM, a TGI [39] of 3.44 µM and a TGI [40] of 4.92 µM. The TGI [42] was 5.03 µM.

With O=C(COc1ccc(/C=C/C(=O)c2ccc(Cl)cc2)cc1)Nc1c(Cl)cccc1Cl the TGI [2] was over 100 µM, the TGI [44] was over 100 µM and the TGI [56] was over 100 µM. It also gave a TGI [3] of over 100 µM, a TGI [45] of over 100 µM and a TGI [4] of over 100 µM. For the same compound, the TGI [46] was over 100 µM, the TGI [47] was over 100 µM and the TGI [5] was over 100 µM. The TGI [48] was over 100 µM, the TGI [6] was over 100 µM and the TGI [7] was over 100 µM. It also gave a TGI [8] of over 100 µM, a TGI [9] of over 100 µM and a TGI [10] of over 100 µM. For the same compound, the TGI [11] was over 100 µM, the TGI [12] was over 100 µM and the TGI [13] was over 100 µM. For the same compound, the TGI [14] was over 100 µM, the TGI [57] was over 100 µM and the TGI [58] was over 100 µM. It also gave a TGI [49] of over 100 µM, a TGI [15] of over 100 µM and a TGI [16] of over 100 µM. The TGI [50] was over 100 µM, the TGI [51] was over 100 µM and the TGI [60] was over 100 µM. For the same compound, the TGI [17] was over 100 µM, the TGI [18] was over 100 µM and the TGI [19] was over 100 µM. The TGI [20] was over 100 µM, the TGI [52] was over 100 µM and the TGI [22] was over 100 µM. The TGI [23] was over 100 µM, the TGI [24] was over 100 µM and the TGI [25] was over 100 µM. The TGI [27] was over 100 µM, the TGI [59] was over 100 µM and the TGI [29] was over 100 µM. The TGI [30] was over 100 µM, the TGI [31] was over 100 µM and the TGI [32] was over 100 µM. The TGI [54] was over 100 µM, the TGI [33] was over 100 µM and the TGI [55] was over 100 µM. For the same compound, the TGI [35] was over 100 µM, the TGI [36] was over 100 µM and the TGI [37] was over 100 µM. The TGI [38] was over 100 µM, the TGI [39] was over 100 µM and the TGI [40] was over 100 µM. For the same compound, the TGI [41] was over 100 µM, the TGI [42] was over 100 µM and the TGI [43] was over 100 µM.
